Experimental data taken from patent US20250152585A1, “PHARMACEUTICAL COMPOUND” (Duke Street Bio Limited, priority 2022, published 2025).

Experiments:
[1] = target: T1, full length N-terminally FLAG-tagged PARP1 (Homo sapiens, UniProt P09874); assay: PARP1 biochemical DELFIA assay (auto-PARylation); parameters: recombinant full length human N-terminally FLAG-tagged PARP1; conditions: binned IC50, PARP1 biochemical DELFIA assay
[2] = target: T1, full length N-terminally FLAG-tagged PARP1; assay: PARP1 probe displacement HTRF assay; conditions: for Selectivity: PARP1 over PARP2, ratio Kd (PARP2)/Kd (PARP1), probe displacement HTRF; for Kd: read-out: PARP1 HTRF, binned Kd, PARP1 probe displacement HTRF
[3] = target: T2, N-terminally FLAG-tagged PARP2 (amino acids 1-583) (Homo sapiens, UniProt Q9UGN5); assay: PARP2 probe displacement HTRF assay; assay type: binding; conditions: binned Kd, PARP2 probe displacement HTRF
T2 construct: N-terminally FLAG-tagged PARP2 (amino acids 1-583)
Description: Data analysis was performed identical as for PARP1.

T1 sequence (P09874 whole entry): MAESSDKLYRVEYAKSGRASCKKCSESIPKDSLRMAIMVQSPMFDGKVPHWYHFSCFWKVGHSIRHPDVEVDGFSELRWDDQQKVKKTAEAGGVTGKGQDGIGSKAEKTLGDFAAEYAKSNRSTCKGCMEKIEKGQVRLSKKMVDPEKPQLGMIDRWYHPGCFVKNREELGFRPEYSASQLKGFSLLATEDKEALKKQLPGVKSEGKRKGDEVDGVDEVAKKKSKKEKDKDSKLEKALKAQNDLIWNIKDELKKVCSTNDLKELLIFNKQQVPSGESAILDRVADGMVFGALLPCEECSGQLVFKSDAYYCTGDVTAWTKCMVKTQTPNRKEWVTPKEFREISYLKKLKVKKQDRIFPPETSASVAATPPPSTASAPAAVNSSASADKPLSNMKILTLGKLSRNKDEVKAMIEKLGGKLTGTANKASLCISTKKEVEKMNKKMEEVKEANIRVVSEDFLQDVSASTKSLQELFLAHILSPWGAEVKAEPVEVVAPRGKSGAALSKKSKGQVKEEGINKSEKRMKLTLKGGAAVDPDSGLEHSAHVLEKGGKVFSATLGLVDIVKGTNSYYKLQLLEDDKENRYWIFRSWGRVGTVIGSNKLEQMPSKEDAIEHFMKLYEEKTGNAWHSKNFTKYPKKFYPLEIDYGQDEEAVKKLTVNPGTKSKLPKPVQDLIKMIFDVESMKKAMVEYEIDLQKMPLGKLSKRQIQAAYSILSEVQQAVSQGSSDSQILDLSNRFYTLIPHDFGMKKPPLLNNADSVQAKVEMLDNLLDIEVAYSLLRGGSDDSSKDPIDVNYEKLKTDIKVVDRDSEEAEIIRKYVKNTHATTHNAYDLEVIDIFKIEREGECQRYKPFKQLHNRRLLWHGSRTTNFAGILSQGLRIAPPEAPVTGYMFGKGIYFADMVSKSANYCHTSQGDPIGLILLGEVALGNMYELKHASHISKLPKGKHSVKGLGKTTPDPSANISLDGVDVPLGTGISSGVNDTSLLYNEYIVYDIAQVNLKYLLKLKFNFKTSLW
T2 sequence (Q9UGN5 whole entry, the tested form may be a part): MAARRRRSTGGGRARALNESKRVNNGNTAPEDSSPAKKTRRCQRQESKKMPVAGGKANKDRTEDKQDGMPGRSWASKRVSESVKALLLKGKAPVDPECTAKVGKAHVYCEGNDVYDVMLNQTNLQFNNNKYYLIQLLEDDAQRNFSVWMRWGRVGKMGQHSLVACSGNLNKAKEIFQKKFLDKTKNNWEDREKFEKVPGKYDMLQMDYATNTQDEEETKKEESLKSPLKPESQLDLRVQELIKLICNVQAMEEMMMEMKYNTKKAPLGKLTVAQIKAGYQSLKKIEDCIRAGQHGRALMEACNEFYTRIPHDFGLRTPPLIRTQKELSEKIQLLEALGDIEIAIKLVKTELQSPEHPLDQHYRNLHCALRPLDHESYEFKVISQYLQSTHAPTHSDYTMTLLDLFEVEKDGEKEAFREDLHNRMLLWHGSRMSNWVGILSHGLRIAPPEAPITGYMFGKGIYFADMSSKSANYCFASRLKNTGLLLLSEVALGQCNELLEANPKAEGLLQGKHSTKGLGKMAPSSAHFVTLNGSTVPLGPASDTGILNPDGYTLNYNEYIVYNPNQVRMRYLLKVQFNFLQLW

SMILES | IC50 [1] | Selectivity [2] | Kd [2] | Kd [3]
CNC(=O)c1ccc(N2CCC(N3CCCC(c4nc5ccncc5c(=O)[nH]4)C3)CC2)cn1 (single isomer, unassigned) [Compound 93a] | 100 to 1000 nM | + (+ indicates a value of 10 to less than 50) | 100 to 1000 nM | > 10 µM
CNC(=O)c1ccc(N2CCC(N3CCCC(c4nc5ccncc5c(=O)[nH]4)C3)CC2)cn1 (single isomer, unassigned) [Compound 93b] | 1000 to 10000 nM | − (− indicates a value of less than 10) | 1000 to 10000 nM | > 10 µM
CNC(=O)c1ccc(N2CCC(N3CCCC(c4nc5ccccc5c(=O)[nH]4)C3)CC2)c(Cl)n1 (single isomer, unassigned) [Compound 94a] | 10 to 100 nM | + (+ indicates a value of 10 to less than 50) | 10 to 100 nM | 1 to 10 µM
CNC(=O)c1ccc(N2CCC(N3CCCC(c4nc5ccccc5c(=O)[nH]4)C3)CC2)c(Cl)n1 (single isomer, unassigned) [Compound 94b] | < 10 nM | +++ (+++ indicate a value of at least 100) | < 10 nM | > 10 µM
CNC(=O)c1cnc(N2CCC(N3CCC(c4nc5ccccc5c(=O)[nH]4)C3)CC2)cn1 (single isomer, unassigned) [Compound 96a] | 10 to 100 nM | + (+ indicates a value of 10 to less than 50) | 10 to 100 nM | 1 to 10 µM
CNC(=O)c1cnc(N2CCC(N3CCC(c4nc5ccccc5c(=O)[nH]4)C3)CC2)cn1 (single isomer, unassigned) [Compound 96b] | 100 to 1000 nM | − (− indicates a value of less than 10) | 100 to 1000 nM | 0.1 to 1 µM
CNC(=O)c1ccc(N2CCC(N3CCC(c4nc(C)cc(=O)[nH]4)C3)CC2)cn1 (single isomer, unassigned) [Compound 97a] | > 10000 nM | − (− indicates a value of less than 10) | > 10000 nM | > 10 µM
CNC(=O)c1ccc(N2CCC(N3CCC(c4nc(C)cc(=O)[nH]4)C3)CC2)cn1 (single isomer, unassigned) [Compound 97b] | 100 to 1000 nM | − (− indicates a value of less than 10) | 100 to 1000 nM | > 10 µM
CNC(=O)c1ccc(N2CCC(N3CCCC(c4nc5ncccc5c(=O)[nH]4)C3)CC2)cn1 (single isomer, unassigned) [Compound 98a] | 10 to 100 nM | +++ (+++ indicate a value of at least 100) | 10 to 100 nM | > 10 µM
CNC(=O)c1ccc(N2CCC(N3CCCC(c4nc5ncccc5c(=O)[nH]4)C3)CC2)cn1 (single isomer, unassigned) [Compound 98b] | 100 to 1000 nM | + (+ indicates a value of 10 to less than 50) | 100 to 1000 nM | > 10 µM
CNC(=O)c1cnc(N2CCC(N3CCCC(c4nc5ccccc5c(=O)[nH]4)C3)CC2)cn1 (single isomer, unassigned) [Compound 99a] | 1000 to 10000 nM | − (− indicates a value of less than 10) | 1000 to 10000 nM | > 10 µM
CNC(=O)c1cnc(N2CCC(N3CCCC(c4nc5ccccc5c(=O)[nH]4)C3)CC2)cn1 (single isomer, unassigned) [Compound 99b] | 10 to 100 nM | − (− indicates a value of less than 10) | 100 to 1000 nM | 0.1 to 1 µM
CNC(=O)c1ccc(N2CCC(N3CCCC(c4cc5ccccc5c(=O)[nH]4)C3)CC2)cn1 (single isomer, unassigned) [Compound 100a] | < 10 nM | +++ (+++ indicate a value of at least 100) | < 10 nM | 0.1 to 1 µM
CNC(=O)c1ccc(N2CCC(N3CCCC(c4cc5ccccc5c(=O)[nH]4)C3)CC2)cn1 (single isomer, unassigned) [Compound 100b] | 10 to 100 nM | +++ (+++ indicate a value of at least 100) | 10 to 100 nM | 1 to 10 µM
